The text below walks through data of US9212168B2 (priority 2011, dated 2015).

In this experiment the test system is HCV genotype 1a replicon. Description: HCV genotype 1a replicon assay (NS3 protease activity readout). Type of experiment: cell-based, hepatitis C virus. The conditions noted are these: for EC50: Hepatitis C virus, read-out: Genotype 1a, HCV genotype 1a replicon; for Genotype 1a: HCV genotype 1a replicon. The gist of the method: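 Genotype 1a subgenomic replicon cells (APC89, Huh7.5) were treated with compound dose-responses in G418-free medium, 0.5% DMSO final, for 48 or 72 hours at 37° C. Lysate NS3/4a protease activity measured with 15 μM FRET substrate, 20 min at 37° C (ex 340/em 509 nm); EC50 by 4-parameter fit.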

Molecules are shown by their SMILES.

For `COC(=O)N[C@H](C(=O)N1CC(C)(C)C[C@H]1c1nc(-c2ccc(-c3ccc(C(=O)Nc4ccc(N5CCN(C(=O)C6CC6(C)C)C[C@H]5C)nc4)cc3OC(F)(F)F)cc2)c[nH]1)C(C)C` (stereo partly drawn) [Example 6-8], the EC50 lay within 0.1 to 1 nM.
Regarding `COC(=O)N[C@H](C(=O)N1C[C@@H](C)C[C@H]1c1nc(-c2ccc(-c3ccc(C(=O)Nc4ccc(N5CCN(C(=O)C6CC6(Cl)Cl)C[C@H]5C)nc4)cc3OC(F)(F)F)cc2)c(Cl)[nH]1)C(C)C` (stereo partly drawn) [Example 4-30], the “Genotype 1a” value is “C (C represents pEC50 between and 9 and about 10, (EC50 between 1 nM and 0.1 nM))”.
Turning to `COC(=O)N[C@@H](C(=O)N1C[C@@H](C)C[C@H]1c1nc(-c2ccc(-c3cc(Cl)c(NC(=O)c4ccc(N5CCN(C(=O)C(C)(C)C)C[C@H]5C)nc4)cc3OC(F)(F)F)cc2)c[nH]1)C1C[C@@H](C)O[C@@H](C)C1` (stereo partly drawn) [Example 13-43], the EC50 is 1 to 10 nM.
Still for that read-out and setting: then `COC(=O)N[C@@H](C(=O)N1C[C@@H](C)C[C@H]1c1nc(-c2ccc(-c3cc(Cl)c(NC(=O)c4ccc(N5CCN(C(=O)C(C)(C)C)C[C@H]5C)nc4)cc3OC(F)(F)F)cc2)c[nH]1)C1CCCCC1` [Example 13-40], with 10 to 1000 nM.
Take `COC(=O)N[C@H](C(=O)N1C[C@H](O)C[C@H]1c1nc(-c2ccc(-c3ccc(NC(=O)c4ccc(N5CCN(C(=O)[C@]6(C)CCCN6C(=O)OC)C[C@H]5C)nc4)cc3)cc2)c[nH]1)C(C)C` [Example 26-1]: the “Genotype 1a” value is “A (A represents a pEC50 value between 6 and 8 (EC50 between 1 μM and 10 nM))”.
`COC(=O)N[C@H](C(=O)N1C[C@H](N2Cc3ccccc3C2)C[C@H]1c1nc(-c2ccc(-c3cc(Cl)c(NC(=O)c4ccc(N5CCN(C(=O)C(C)(C)C)C[C@H]5C)nc4)cc3OC(F)(F)F)cc2)c[nH]1)C(C)C` [Example 5-10]: the EC50 lay within 10 to 1000 nM.
Still for that read-out and setting: the same measure for `COC(=O)N[C@H](C(=O)N1C[C@H](C)C[C@H]1c1nc(-c2ccc(-c3cc(Cl)c(C(=O)Nc4ccc(N5CCN(C(=O)C(C)(C)C)C[C@H]5C)nc4)cc3OC(F)(F)F)cc2)c[nH]1)C(C)C` [Example 6-26]: 1 to 10 nM.
On to `COC(=O)N[C@H](C(=O)N1C[C@@H](C)C[C@H]1c1nc(-c2ccc(-c3cc(Cl)c(NC(=O)c4ccc(N5CCN(C(=O)[C@@H]6CCN6C(C)C)C[C@H]5C)nc4)cc3OC(F)(F)F)cc2)c[nH]1)C(C)C` [Example 1-85], for which the “Genotype 1a” value is “B (B represents pEC50 between 8 and 9 (EC50 between 1 and 10 nM))”.
In the case of `COC(=O)N(C)[C@H](C(=O)N1C[C@@H](C)C[C@H]1c1nc(-c2ccc(-c3cc(Cl)c(NC(=O)c4ccc(N5CCN(C(=O)C(C)(C)CO)C[C@H]5C)nc4)cc3OC(F)(F)F)cc2)c[nH]1)C(C)C` [Example 13-45], the EC50 lay within 0.1 to 1 nM.
`COC(=O)NC(C(=O)N1CC(OC)CC1c1nc(-c2ccc(-c3cc(F)c(NC(=O)c4ccc(N5CCN(C(=O)C(C)(C)C)CC5C)nc4)cc3OC(F)(F)F)cc2)c[nH]1)C(C)(C)O` (stereo not drawn) [Example 16-6]: the “Genotype 1a” value is “D (D represents pEC50>10 (EC50<0.1 nM))”.
As for `COC(=O)N[C@H](C(=O)N1CC(C)(C)C[C@H]1c1nc(-c2ccc(-c3ccc(C(=O)Nc4ccc(N5CCN(C(=O)C(C)(C)C)C[C@H]5C)nc4)cc3OC(F)(F)F)cc2)c[nH]1)C(C)C` [Example 6-23], the EC50 lay within 1 to 10 nM.
As to `COC(=O)N[C@H](C(=O)N1C[C@@H](C)C[C@H]1c1nc(-c2ccc(-c3cc(Cl)c(NC(=O)c4ccc(N5CCN(C(=O)C6CC6)C[C@H]5C)nc4)cc3OC(F)(F)F)cc2)c[nH]1)C(C)C` [Example 1-42], the “Genotype 1a” value was “D (D represents pEC50>10 (EC50<0.1 nM))”.
Take `CNC(=O)NCC(C)(C)C(=O)N1CCN(c2ccc(C(=O)Nc3cc(OC(F)(F)F)c(-c4ccc(-c5c[nH]c([C@@H]6C[C@H](C)CN6C(=O)[C@@H](NC(=O)OC)C(C)C)n5)cc4)cc3Cl)cn2)[C@H](C)C1` [Example 12-40]: the EC50 is below 0.1 nM.
Same read-out and setting: the same measure for `COC(=O)N[C@H](C(=O)N1C[C@@H](N(C)C)C[C@H]1c1nc(-c2ccc(-c3ccc(C(=O)Nc4ccc(N5CCN(C(=O)C(C)(C)C)C[C@H]5C)nc4)cc3OC(F)(F)F)cc2)c(Cl)[nH]1)C(C)C` [Example 10-3]: below 0.1 nM.
With `CC[C@@H](C)C(=O)N1CCN(c2ccc(C(=O)Nc3cc(OC(F)(F)F)c(-c4ccc(-c5c[nH]c([C@@H]6C[C@H](C)CN6C(=O)[C@@H](NC(=O)OC)C(C)C)n5)cc4)cc3Cl)cn2)[C@H](C)C1` [Example 1-86], the “Genotype 1a” value was “D (D represents pEC50>10 (EC50<0.1 nM))”.
The same measure, in the same setting: the same measure for `COC(=O)NC(C(=O)N1C[C@@H](OC)C[C@H]1c1nc(-c2ccc(-c3cc(Cl)c(NC(=O)c4ccc(N5CCN(C(=O)C(C)(C)CO)C[C@H]5C)nc4)cc3C(F)(F)F)cc2)c[nH]1)C1CCS(=O)(=O)CC1` (single isomer, unassigned) [Example 19-12]: “D (D represents pEC50>10 (EC50<0.1 nM))”; for `COC(=O)NC(C(=O)N1CC(F)CC1c1nc(-c2ccc(-c3cc(Cl)c(NC(=O)c4ccc(N5CCN(C(=O)C(C)(C)CO)CC5C)nc4)cc3OC(F)(F)F)cc2)c[nH]1)C(C)C` (stereo not drawn) [Example 29-3]: “C (C represents pEC50 between and 9 and about 10, (EC50 between 1 nM and 0.1 nM))”.
Same read-out and setting: then `COC(=O)N[C@H](C(=O)N1C[C@@H](OC)C[C@H]1c1nc(-c2ccc(-c3cc(Cl)c(NC(=O)c4ccc(N5CCN(C(=O)NC(C)(C)C)C[C@H]5C)nc4)cc3OC(F)(F)F)cc2)c[nH]1)C1CCOCC1` [Example 28-12], with “D (D represents pEC50>10 (EC50<0.1 nM))”.
In the case of `COC(=O)N[C@H](C(=O)N1C[C@@H]([S+](C)[O-])C[C@H]1c1nc(-c2ccc(-c3ccc(C(=O)Nc4ccc(N5CCN(C(=O)C(C)(C)C)C[C@H]5C)nc4)cc3OC(F)(F)F)cc2)c[nH]1)C(C)C` (stereo partly drawn) [Example 6-19], the EC50 lay within 0.1 to 1 nM.
As to `COC(=O)NC(C(=O)N1C[C@@H](C)C[C@H]1c1nc(-c2ccc(-c3cc(Cl)c(NC(=O)c4ccc(N5CCN(C(=O)C(C)(C)CO)C[C@H]5C)nc4)cc3C(F)(F)F)cc2)c[nH]1)C1CCS(=O)(=O)CC1` (single isomer, unassigned) [Example 19-1], the “Genotype 1a” value is “D (D represents pEC50>10 (EC50<0.1 nM))”.
Consider `COC(=O)N[C@H](C(=O)N1C[C@@H](C)C[C@H]1c1nc(-c2ccc(-c3cc(Cl)c(NC(=O)c4ccc(N5CCN(C(=O)C(C)(C)CN)C[C@H]5C)nc4)cc3OC(F)(F)F)cc2)c[nH]1)C(C)C` [Example 12-36], for which the EC50 is 10 to 1000 nM.
For `COC(=O)N[C@H](C(=O)N1C[C@@H](C)C[C@H]1c1nc(-c2ccc(-c3cc(Cl)c(NC(=O)c4ccc(N5CCN(C(=O)C(C)(C)N6CCOCC6)C[C@H]5C)nc4)cc3OC(F)(F)F)cc2)c[nH]1)C(C)C` [Example 12-26], the EC50 was below 0.1 nM.
On to `COC(=O)N[C@H](C(=O)N1C[C@@H](N2CCOCC2)C[C@H]1c1nc(-c2ccc(-c3cc(Cl)c(NC(=O)c4ccc(N5CCN(C(=O)[C@H]6CC6(C)C)C[C@H]5C)nc4)cc3OC(F)(F)F)cc2)c[nH]1)C(C)C` [Example 15-4], for which the “Genotype 1a” value is “D (D represents pEC50>10 (EC50<0.1 nM))”.
In the case of `COC(=O)N[C@H](C(=O)N1C[C@H](OC)C[C@H]1c1nc(-c2ccc(-c3cc(Cl)c(NC(=O)c4ccc(N5CCN(C(=O)C(C)(C)C)C[C@H]5C)nc4)cc3OC(F)(F)F)cc2)c[nH]1)C(C)C` [Example 5-19], the EC50 is below 0.1 nM.
As to `COC(=O)N[C@H](C(=O)N1C[C@@H](C)C[C@H]1c1nc(-c2ccc(-c3ccc(C(=O)Nc4ccc(N5C[C@H](C)N(C(=O)[C@@H](C)NC(C)=O)C[C@H]5C)nc4)cc3OC(F)(F)F)cc2)c[nH]1)C(C)C` [Example 4-28], the “Genotype 1a” value was “D (D represents pEC50>10 (EC50<0.1 nM))”.
The same measure, in the same setting: the same measure for `COC(=O)N[C@H](C(=O)N1C[C@@H](C)C[C@H]1c1nc(-c2ccc(-c3cc(Cl)c(NC(=O)c4ccc(N5CCN(C(=O)[C@H]6CCCN6C(C)=O)C[C@H]5C)nc4)cc3OC(F)(F)F)cc2)c[nH]1)C(C)C` [Example 1-47]: “D (D represents pEC50>10 (EC50<0.1 nM))”; for `CNC(=O)N1C[C@@H](C)N(c2ccc(C(=O)Nc3cc(OC(F)(F)F)c(-c4ccc(-c5c[nH]c([C@@H]6C[C@H](C)CN6C(=O)[C@@H](NC(=O)OC(C)C)C(C)C)n5)cc4)cc3Cl)cn2)C[C@@H]1C` [Example 7-5]: “B (B represents pEC50 between 8 and 9 (EC50 between 1 and 10 nM))”.
Same read-out and setting: then `COC(=O)N[C@H](C(=O)N1C[C@@H](C)C[C@H]1c1nc(-c2ccc(-c3cc(Cl)c(NC(=O)c4ccc(N5CCN(C(=O)c6cn(C)cn6)C[C@H]5C)nc4)cc3OC(F)(F)F)cc2)c[nH]1)C(C)C` [Example 1-33], with “C (C represents pEC50 between and 9 and about 10, (EC50 between 1 nM and 0.1 nM))”; and `COC(=O)NC(C(=O)N1CC(OC)CC1c1nc(-c2ccc(-c3ccc(NC(=O)c4ccc(N5CCN(C(=O)C(C)(C)C)CC5C)nc4)cc3OC(F)(F)F)cc2)c[nH]1)C(C)OC` (stereo not drawn) [Example 16-11], with “D (D represents pEC50>10 (EC50<0.1 nM))”.
On the same count and under the same terms, the same measure for `COC(=O)N[C@H](C(=O)N1C[C@@H](C)C[C@H]1c1nc(-c2ccc(-c3cc(F)c(C(=O)Nc4ccc(N5CCN(C(=O)[C@H]6CC6(C)C)C[C@H]5C)nc4)cc3OC(F)(F)F)cc2)c(Cl)[nH]1)C(C)C` [Example 4-44]: “D (D represents pEC50>10 (EC50<0.1 nM))”; for `COC(=O)NC(C(=O)N1CC(C)CC1c1nc(-c2ccc(-c3cc(F)c(NC(=O)c4ccc(N5CCN(C(=O)C6CC6(F)Cl)CC5C)nc4)cc3OC(F)(F)F)cc2)c[nH]1)C(C)C` (mixture of isomers) [Example 1-60]: “D (D represents pEC50>10 (EC50<0.1 nM))”; for `COC(=O)NC(C(=O)N1CC(C)CC1c1nc(-c2ccc(-c3ccc(NC(=O)c4ccc(N5CCN(C(=O)C(C)(C)CO)CC5C)nc4)cc3OC(F)(F)F)cc2)c[nH]1)C1CCOCC1` (stereo not drawn) [Example 13-32]: “D (D represents pEC50>10 (EC50<0.1 nM))”.
As to `COC(=O)N[C@H](C(=O)N1C[C@@H](OC)C[C@H]1c1nc(-c2ccc(-c3cc(Cl)c(NC(=O)c4ccc(N5C[C@H](C)N(C(=O)NC(C)(C)C)C[C@H]5C)nc4)cc3OC(F)(F)F)cc2)c[nH]1)C1CCOCC1` [Example 28-9], the “Genotype 1a” value is “D (D represents pEC50>10 (EC50<0.1 nM))”.
